pIC50: −log10 of the molar value.
Assays:
PDE3 = PDE3 inhibition (PDE3/4 IC50); type: biochemical; conditions: first value of PDE3/4 pair
[1] = system: ovalbumin-sensitized/-challenged Brown-Norway rat; test: Late inflammatory airway reaction in the ovalbumin-sensitized/-challenged Brown-Norway rat (BAL); conditions: summary of the table; i.t.; Roflumilast 0.3 μmol/kg, Pumafentrine 3 μmol/kg, Salmeterol 3 pmol/kg [sic]
Protocol: Sensitization was done by simultaneous injection of Bordetella pertussis suspension i.p. and OVA/AHG suspension s.c. on day 1, 14 and 21. 28 days after start of sensitization, conscious Brown-Norway rats were challenged by inhalation of the aerosolized OVA solution for 1 h (˜20 ml/h). Non-challenged, only sensitized animals were used as baseline control. The drugs (thoroughly mixed with lactose) or the placebo control (lactose) were administered intratracheally (i.t.) as dry powders 1 h before OVA-challenge. 48 h later, OVA-challenged or non-challenged animals were anaesthetized and bronchoalveolar lavage (BAL) was performed using 3×4 ml BAL buffer per animal. The number of total cells and eosinophils in the BAL fluid, and the concentration of protein in the cell-free BAL fluid were determined. Drug-induced relative changes were calculated and statistically analyzed by the Jonckheere Terpstra test.

PDE4 = PDE4 inhibition (PDE3/4 IC50); type: biochemical; conditions: second value of PDE3/4 pair

SMILES | pIC50 (PDE3) | effect on cell infiltration and protein accumulation in BAL fluid, in words [1] | pIC50 (PDE4)
O=C(Nc1c(Cl)cncc1Cl)c1ccc(OC(F)F)c(OCC2CC2)c1 [Roflumilast] | < 5.00 | did not show any significant effects | 9.15
OCc1cc(C(O)CNCCCCCCOCCCCc2ccccc2)ccc1O (single isomer, unassigned; (+)) [Salmeterol, (+)-4-hydroxy-α^1-[[[6-(4-phenylbutoxy)hexyl]amino]methyl]-1,3-benzenedimethanol] | – | exhibited inhibitory effects | –
CCOc1cc2c(cc1OC)C(c1ccc(C(=O)N(C(C)C)C(C)C)cc1)=N[C@@H]1CCN(C)C[C@H]21 [Pumafentrine] | 7.55 | did not show any significant effects | 8.15
